Experimental data from the supplement of paper PMC10307832.

What was measured:
Test in all cases: relative viability (nuclei count vs DMSO), 5 days (fraction); higher = more cells survive
A-427 = system: A-427
Method in brief: (§1)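 Relative viability was taken as the ratio of nuclei in treated wells to nuclei in vehicle wells. Lung cancer cell lines in 1536-well plates received compounds by pin tool one day after seeding, either one drug alone or a fixed anchor-drug dose plus five library-drug doses (not always all listed) in √10 steps. Nuclei were counted on 4× images after 5 days of treatment, and values are medians of duplicate plates.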

NCI-H460 = system: NCI-H460
Method in brief: as §1

NCI-H2009 = system: NCI-H2009
Method in brief: as §1

NCI-H1792 = system: NCI-H1792
Method in brief: as §1

NCI-H1395 = system: NCI-H1395
Method in brief: as §1

NCI-H2228 = system: NCI-H2228
Method in brief: as §1

CAL-12T = system: CAL-12T
Method in brief: as §1

HARA = system: HARA
Method in brief: as §1

COR-L 105 = system: COR-L 105
Method in brief: as §1

NCI-H23 = system: NCI-H23
Method in brief: as §1

NCI-H1437 = system: NCI-H1437
Method in brief: as §1

LCLC-103H = system: LCLC-103H
Method in brief: as §1

HOP-62 = system: HOP-62
Method in brief: as §1

NCI-H1915 = system: NCI-H1915
Method in brief: as §1

NCI-H727 = system: NCI-H727
Method in brief: as §1

EMC-BAC-2 = system: EMC-BAC-2
Method in brief: as §1

HCC-366 = system: HCC-366
Method in brief: as §1

HCC-827 = system: HCC-827
Method in brief: as §1

NCI-H1755 = system: NCI-H1755
Method in brief: as §1

SK-LU-1 = system: SK-LU-1
Method in brief: as §1

SW 1573 = system: SW 1573
Method in brief: as §1

Work on `COc1nc(C)cnc1NS(=O)(=O)c1cccnc1-c1ccc(-c2nnco2)cc1` [Zibotentan] + CS(=O)(=O)N1CCN(Cc2cc3nc(-c4cccc5[nH]ncc45)nc(N4CCOCC4)c3s2)CC1 [Pictilisib] (partner 1 µM) yielded a relative viability (A-427; first compound 0.08 µM) of 0.909, a relative viability (A-427; first compound 0.253 µM) of 0.733 and a relative viability (A-427; first compound 0.8 µM) of 0.68. It also gave a relative viability (A-427; first compound 2.53 µM) of 0.751, a relative viability (NCI-H460; first compound 0.08 µM) of 0.351 and a relative viability (NCI-H460; first compound 0.253 µM) of 0.336. For the same compound, the relative viability (NCI-H460; first compound 0.8 µM) was 0.327, the relative viability (NCI-H460; first compound 2.53 µM) was 0.38 and the relative viability (NCI-H2009; first compound 0.08 µM) was 0.889. It also gave a relative viability (NCI-H2009; first compound 0.253 µM) of 0.774, a relative viability (NCI-H2009; first compound 0.8 µM) of 0.822 and a relative viability (NCI-H2009; first compound 2.53 µM) of 0.886. For the same compound, the relative viability (NCI-H1792; first compound 0.08 µM) was 0.275, the relative viability (NCI-H1792; first compound 0.253 µM) was 0.234 and the relative viability (NCI-H1792; first compound 0.8 µM) was 0.257. The relative viability (NCI-H1792; first compound 2.53 µM) was 0.246, the relative viability (NCI-H1395; first compound 0.08 µM) was 0.789 and the relative viability (NCI-H1395; first compound 0.253 µM) was 0.546. For the same compound, the relative viability (NCI-H1395; first compound 0.8 µM) was 0.606, the relative viability (NCI-H1395; first compound 2.53 µM) was 0.541 and the relative viability (NCI-H2228; first compound 0.08 µM) was 0.45. For the same compound, the relative viability (NCI-H2228; first compound 0.253 µM) was 0.438, the relative viability (NCI-H2228; first compound 0.8 µM) was 0.355 and the relative viability (NCI-H2228; first compound 2.53 µM) was 0.317. It also gave a relative viability (CAL-12T; first compound 0.08 µM) of 0.395, a relative viability (CAL-12T; first compound 0.8 µM) of 0.453 and a relative viability (CAL-12T; first compound 2.53 µM) of 0.513. The relative viability (HARA; first compound 0.08 µM) was 0.443, the relative viability (HARA; first compound 0.253 µM) was 0.438 and the relative viability (HARA; first compound 0.8 µM) was 0.351. The relative viability (HARA; first compound 2.53 µM) was 0.57, the relative viability (COR-L 105; first compound 0.08 µM) was 0.523 and the relative viability (COR-L 105; first compound 0.253 µM) was 0.357. For the same compound, the relative viability (COR-L 105; first compound 0.8 µM) was 0.477, the relative viability (COR-L 105; first compound 2.53 µM) was 0.502 and the relative viability (NCI-H23; first compound 0.08 µM) was 0.403. For the same compound, the relative viability (NCI-H23; first compound 0.253 µM) was 0.462, the relative viability (NCI-H23; first compound 0.8 µM) was 0.556 and the relative viability (NCI-H23; first compound 2.53 µM) was 0.58. For the same compound, the relative viability (NCI-H1437; first compound 0.08 µM) was 0.462, the relative viability (NCI-H1437; first compound 0.253 µM) was 0.334 and the relative viability (NCI-H1437; first compound 0.8 µM) was 0.366. The relative viability (NCI-H1437; first compound 2.53 µM) was 0.582, the relative viability (LCLC-103H; first compound 0.08 µM) was 0.681 and the relative viability (LCLC-103H; first compound 0.253 µM) was 0.558. For the same compound, the relative viability (LCLC-103H; first compound 0.8 µM) was 0.55, the relative viability (LCLC-103H; first compound 2.53 µM) was 0.608 and the relative viability (HOP-62; first compound 0.08 µM) was 0.687. It also gave a relative viability (HOP-62; first compound 0.253 µM) of 0.769, a relative viability (HOP-62; first compound 0.8 µM) of 0.752 and a relative viability (HOP-62; first compound 2.53 µM) of 0.851. It also gave a relative viability (NCI-H1915; first compound 0.08 µM) of 1.01, a relative viability (NCI-H1915; first compound 0.253 µM) of 0.955 and a relative viability (NCI-H1915; first compound 0.8 µM) of 0.873. The relative viability (NCI-H1915; first compound 2.53 µM) was 0.96, the relative viability (NCI-H727; first compound 0.08 µM) was 0.567 and the relative viability (NCI-H727; first compound 0.253 µM) was 0.38. It also gave a relative viability (NCI-H727; first compound 0.8 µM) of 0.395, a relative viability (NCI-H727; first compound 2.53 µM) of 0.483 and a relative viability (EMC-BAC-2; first compound 0.08 µM) of 0.568. The relative viability (EMC-BAC-2; first compound 0.253 µM) was 0.529, the relative viability (EMC-BAC-2; first compound 0.8 µM) was 0.56 and the relative viability (EMC-BAC-2; first compound 2.53 µM) was 0.56. It also gave a relative viability (HCC-366; first compound 0.08 µM) of 0.145, a relative viability (HCC-366; first compound 0.253 µM) of 0.156 and a relative viability (HCC-366; first compound 0.8 µM) of 0.141. For the same compound, the relative viability (HCC-366; first compound 2.53 µM) was 0.148, the relative viability (HCC-827; first compound 0.08 µM) was 0.95 and the relative viability (HCC-827; first compound 0.253 µM) was 0.846. The relative viability (HCC-827; first compound 0.8 µM) was 0.964, the relative viability (HCC-827; first compound 2.53 µM) was 0.956 and the relative viability (NCI-H1755; first compound 0.08 µM) was 0.444. It also gave a relative viability (NCI-H1755; first compound 0.253 µM) of 0.461, a relative viability (NCI-H1755; first compound 0.8 µM) of 0.382 and a relative viability (NCI-H1755; first compound 2.53 µM) of 0.47. The relative viability (SK-LU-1; first compound 0.08 µM) was 0.603, the relative viability (SK-LU-1; first compound 0.253 µM) was 0.456 and the relative viability (SK-LU-1; first compound 0.8 µM) was 0.603. For the same compound, the relative viability (SK-LU-1; first compound 2.53 µM) was 0.54, the relative viability (SW 1573; first compound 0.08 µM) was 0.53 and the relative viability (SW 1573; first compound 0.253 µM) was 0.533. It also gave a relative viability (SW 1573; first compound 0.8 µM) of 0.557 and a relative viability (SW 1573; first compound 2.53 µM) of 0.478.
